# From US11077184B2 (priority 2011, dated 2021)
# “Also recorded” adds a separate entry of the source.
# Key:
# [1] = test system: murine DCs; conditions: cited from earlier work
# [2] = test system: Purified B cells from C57BL6 mice; assay type: cell-based
Substance,"pro-inflammatory cytokines IL-12p40, IL-6 and TNFα produced [1]","proliferation of B cells ([3H]-thymidine incorporation, CPM) [2]"
tripalmitoyl-S-glyceryl-cysteine [Pam3Cys],high levels,can induce potent proliferation of B cells; also recorded: capable of inducing potent proliferation of B cells
Poly I:C,,does not
